# Test results: patent US8192962B2, “Processes for detecting toxic substances” (Daikin Industries, Ltd., priority 2001, dated 2012)
# Test system: Metabolism protein genes
# Assay: DNA chip mRNA expression in yeast, metabolism protein genes (Table 7)
# Format: cell-based, Saccharomyces cerevisiae S288C
# Outline: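 Measured as treated-to-untreated fluorescence ratio on a full-genome yeast DNA chip. Cells (S288C, YPD, 25° C.) were exposed in log phase for two hours to one chemical, dosed to curb growth without killing.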
substance,measurement,setting,value
manganese ethylenebis(dithiocarbamate) [(8)],The level of expressed mRNA in the presence of chemical substance/The level of expressed mRNA in the absence of chemical substance,yeast gene YJR155W,10.6
same,The level of expressed mRNA in the presence of chemical substance/The level of expressed mRNA in the absence of chemical substance,yeast gene YKL035W,1.0
same,level of expressed mRNA in the presence/in the absence of chemical substance,yeast gene YKL060C,1.1
same,The level of expressed mRNA in the presence of chemical substance/The level of expressed mRNA in the absence of chemical substance,yeast gene YKL091C,1.3
same,The level of expressed mRNA in the presence of chemical substance/The level of expressed mRNA in the absence of chemical substance,yeast gene YKL104C,1.1
same,level of expressed mRNA in the presence/in the absence of chemical substance,yeast gene YKL148C,0.8
same,The level of expressed mRNA in the presence of chemical substance/The level of expressed mRNA in the absence of chemical substance,yeast gene YKL152C,1.0
same,level of expressed mRNA in the presence/in the absence of chemical substance,yeast gene YKL157W,1.1
same,The level of expressed mRNA in the presence of chemical substance/The level of expressed mRNA in the absence of chemical substance,yeast gene YKL213C,1.1
same,The level of expressed mRNA in the presence of chemical substance/The level of expressed mRNA in the absence of chemical substance,yeast gene YKL215C,1.1
same,level of expressed mRNA in the presence/in the absence of chemical substance,yeast gene YKR034W,1.5
same,The level of expressed mRNA in the presence of chemical substance/The level of expressed mRNA in the absence of chemical substance,yeast gene YLL058W,0.9
same,level of expressed mRNA in the presence/in the absence of chemical substance,yeast gene YLR006C,0.9
same,level of expressed mRNA in the presence/in the absence of chemical substance,yeast gene YLR044C,0.7
same,level of expressed mRNA in the presence/in the absence of chemical substance,yeast gene YLR056W,0.9
same,level of expressed mRNA in the presence/in the absence of chemical substance,yeast gene YLR058C,0.3
same,level of expressed mRNA in the presence/in the absence of chemical substance,yeast gene YLR081W,0.9
same,level of expressed mRNA in the presence/in the absence of chemical substance,yeast gene YLR089C,0.7
same,The level of expressed mRNA in the presence of chemical substance/The level of expressed mRNA in the absence of chemical substance,yeast gene YLR180W,0.9
same,The level of expressed mRNA in the presence of chemical substance/The level of expressed mRNA in the absence of chemical substance,yeast gene YLR273C,1.3
same,level of expressed mRNA in the presence/in the absence of chemical substance,yeast gene YLR284C,1.2
same,The level of expressed mRNA in the presence of chemical substance/The level of expressed mRNA in the absence of chemical substance,yeast gene YLR299W,1.0
same,The level of expressed mRNA in the presence of chemical substance/The level of expressed mRNA in the absence of chemical substance,yeast gene YLR300W,0.8
same,level of expressed mRNA in the presence/in the absence of chemical substance,yeast gene YLR304C,0.6
same,The level of expressed mRNA in the presence of chemical substance/The level of expressed mRNA in the absence of chemical substance,yeast gene YLR307W,1.2
same,The level of expressed mRNA in the presence of chemical substance/The level of expressed mRNA in the absence of chemical substance,yeast gene YLR348C,0.9
same,level of expressed mRNA in the presence/in the absence of chemical substance,yeast gene YLR354C,1.4
same,level of expressed mRNA in the presence/in the absence of chemical substance,yeast gene YLR372W,0.9
same,level of expressed mRNA in the presence/in the absence of chemical substance,yeast gene YML022W,1.1
same,The level of expressed mRNA in the presence of chemical substance/The level of expressed mRNA in the absence of chemical substance,yeast gene YML054C,1.5
same,The level of expressed mRNA in the presence of chemical substance/The level of expressed mRNA in the absence of chemical substance,yeast gene YML070W,1.3
same,The level of expressed mRNA in the presence of chemical substance/The level of expressed mRNA in the absence of chemical substance,yeast gene YML100W,0.7
same,The level of expressed mRNA in the presence of chemical substance/The level of expressed mRNA in the absence of chemical substance,yeast gene YMR008C,0.5
same,level of expressed mRNA in the presence/in the absence of chemical substance,yeast gene YMR011W,1.1
same,level of expressed mRNA in the presence/in the absence of chemical substance,yeast gene YMR015C,0.7
same,The level of expressed mRNA in the presence of chemical substance/The level of expressed mRNA in the absence of chemical substance,yeast gene YMR020W,1.2
same,level of expressed mRNA in the presence/in the absence of chemical substance,yeast gene YMR083W,1.1
same,The level of expressed mRNA in the presence of chemical substance/The level of expressed mRNA in the absence of chemical substance,yeast gene YMR105C,1.1
same,The level of expressed mRNA in the presence of chemical substance/The level of expressed mRNA in the absence of chemical substance,yeast gene YMR189W,0.4
same,level of expressed mRNA in the presence/in the absence of chemical substance,yeast gene YMR205C,0.7
same,level of expressed mRNA in the presence/in the absence of chemical substance,yeast gene YMR261C,0.7
same,The level of expressed mRNA in the presence of chemical substance/The level of expressed mRNA in the absence of chemical substance,yeast gene YMR271C,1.8
same,The level of expressed mRNA in the presence of chemical substance/The level of expressed mRNA in the absence of chemical substance,yeast gene YMR296C,0.5
same,level of expressed mRNA in the presence/in the absence of chemical substance,yeast gene YMR323W,0.8
same,The level of expressed mRNA in the presence of chemical substance/The level of expressed mRNA in the absence of chemical substance,yeast gene YNL012W,1.8
same,level of expressed mRNA in the presence/in the absence of chemical substance,yeast gene YNL025C,1.0
same,The level of expressed mRNA in the presence of chemical substance/The level of expressed mRNA in the absence of chemical substance,yeast gene YNL045W,0.7
same,The level of expressed mRNA in the presence of chemical substance/The level of expressed mRNA in the absence of chemical substance,yeast gene YNL104C,0.9
same,The level of expressed mRNA in the presence of chemical substance/The level of expressed mRNA in the absence of chemical substance,yeast gene YNL106C,0.8
same,The level of expressed mRNA in the presence of chemical substance/The level of expressed mRNA in the absence of chemical substance,yeast gene YNL169C,0.8
same,level of expressed mRNA in the presence/in the absence of chemical substance,yeast gene YNL192W,0.8
same,The level of expressed mRNA in the presence of chemical substance/The level of expressed mRNA in the absence of chemical substance,yeast gene YNL231C,1.5
same,The level of expressed mRNA in the presence of chemical substance/The level of expressed mRNA in the absence of chemical substance,yeast gene YNL322C,0.7
same,The level of expressed mRNA in the presence of chemical substance/The level of expressed mRNA in the absence of chemical substance,yeast gene YNL331C,13.1
same,The level of expressed mRNA in the presence of chemical substance/The level of expressed mRNA in the absence of chemical substance,yeast gene YNL332W,1.5
same,The level of expressed mRNA in the presence of chemical substance/The level of expressed mRNA in the absence of chemical substance,yeast gene YNR019W,0.7
same,The level of expressed mRNA in the presence of chemical substance/The level of expressed mRNA in the absence of chemical substance,yeast gene YNR033W,1.1
same,The level of expressed mRNA in the presence of chemical substance/The level of expressed mRNA in the absence of chemical substance,yeast gene YNR059W,1.3
same,The level of expressed mRNA in the presence of chemical substance/The level of expressed mRNA in the absence of chemical substance,yeast gene YOL058W,1.6
same,level of expressed mRNA in the presence/in the absence of chemical substance,yeast gene YOL086C,0.8
same,level of expressed mRNA in the presence/in the absence of chemical substance,yeast gene YOL108C,1.3
same,level of expressed mRNA in the presence/in the absence of chemical substance,yeast gene YOL116W,1.3
same,The level of expressed mRNA in the presence of chemical substance/The level of expressed mRNA in the absence of chemical substance,yeast gene YOL126C,0.9
same,The level of expressed mRNA in the presence of chemical substance/The level of expressed mRNA in the absence of chemical substance,yeast gene YOL153C,1.0
same,level of expressed mRNA in the presence/in the absence of chemical substance,yeast gene YOL156W,1.0
same,The level of expressed mRNA in the presence of chemical substance/The level of expressed mRNA in the absence of chemical substance,yeast gene YOL165C,17.8
same,level of expressed mRNA in the presence/in the absence of chemical substance,yeast gene YOR002W,0.9
same,level of expressed mRNA in the presence/in the absence of chemical substance,yeast gene YOR085W,0.7
same,The level of expressed mRNA in the presence of chemical substance/The level of expressed mRNA in the absence of chemical substance,yeast gene YOR099W,0.9
same,level of expressed mRNA in the presence/in the absence of chemical substance,yeast gene YOR103C,1.0
same,level of expressed mRNA in the presence/in the absence of chemical substance,yeast gene YOR108W,0.9
same,level of expressed mRNA in the presence/in the absence of chemical substance,yeast gene YOR128C,0.6
same,The level of expressed mRNA in the presence of chemical substance/The level of expressed mRNA in the absence of chemical substance,yeast gene YOR130C,0.8
same,level of expressed mRNA in the presence/in the absence of chemical substance,yeast gene YOR142W,0.8
same,level of expressed mRNA in the presence/in the absence of chemical substance,yeast gene YOR176W,1.0
same,level of expressed mRNA in the presence/in the absence of chemical substance,yeast gene YOR178C,0.9
same,level of expressed mRNA in the presence/in the absence of chemical substance,yeast gene YOR251C,1.1
same,The level of expressed mRNA in the presence of chemical substance/The level of expressed mRNA in the absence of chemical substance,yeast gene YOR336W,0.8
same,The level of expressed mRNA in the presence of chemical substance/The level of expressed mRNA in the absence of chemical substance,yeast gene YOR347C,0.8
same,level of expressed mRNA in the presence/in the absence of chemical substance,yeast gene YOR348C,0.8
same,The level of expressed mRNA in the presence of chemical substance/The level of expressed mRNA in the absence of chemical substance,yeast gene YPL017C,1.3
same,level of expressed mRNA in the presence/in the absence of chemical substance,yeast gene YPL028W,0.9
same,level of expressed mRNA in the presence/in the absence of chemical substance,yeast gene YPL057C,1.0
same,level of expressed mRNA in the presence/in the absence of chemical substance,yeast gene YPL135W,1.0
same,level of expressed mRNA in the presence/in the absence of chemical substance,yeast gene YPL148C,0.9
same,The level of expressed mRNA in the presence of chemical substance/The level of expressed mRNA in the absence of chemical substance,yeast gene YPR026W,1.0
same,level of expressed mRNA in the presence/in the absence of chemical substance,yeast gene YPR113W,0.9
same,level of expressed mRNA in the presence/in the absence of chemical substance,yeast gene YPR165W,1.0
same,The level of expressed mRNA in the presence of chemical substance/The level of expressed mRNA in the absence of chemical substance,yeast gene YPR167C,5.5
same,level of expressed mRNA in the presence/in the absence of chemical substance,yeast gene YPR183W,1.0
